Test system: moderate-to-severe chronic spontaneous urticaria (CSU)
Assay: Phase 2 CSU study: hives severity score over 7 days (HSS7)
Assay type: in vivo, human
Design: key to HSS7 Change from baseline, Median / HSS7, Median / HSS7, Max / HSS7 Change from baseline, Q1 / HSS7 Change from baseline, Q3 / HSS7 Change from baseline, Max: 7-day sum of daily hive scores, each 0 = none to 3 = >50 hives
Description: The study comprises a 12 week, randomized, double-blind, placebo-controlled, multi-center, dose-ranging efficacy and safety phase, followed by a 40 week open label extension (OLE) phase (see FIG. 1).
The study consists of three phases and an optional OLE phase.
The UAS is a validated PRO measure. The daily UAS is the sum of the daily Hive Severity Score (HSS, ranging from 0=None to 3=more than 50 hives) and the daily Itch Severity Score (ISS, ranging from 0=None to 3=intense), the 2 key urticaria signs and symptoms which are wheals and itch. The daily UAS scores range from 0 to 6 point/day. Daily UAS scores are summed over 7-day period to create the UAS7, ranging from 0 to 42, and are composed of the HSS7 and ISS7 components. […] Patients were to complete the UAS using the e-diary. The e-diary was to be used once daily on the same time of each day recording of participant's answers to the urticaria activity score over 7 days (UAS7) questionnaire. For participants who entered the OLE phase, their answers to the UAS7 questionnaire were also to be collected from Week 20 to Week24 and from Week 48 to Week 52.
The following secondary endpoints were to be analyzed using the same approach as for the primary endpoint: • Change from baseline in UAS7 at Week 4 • Change from baseline in UAS7 at Week 12 (for US and US reference countries) • Change from baseline in ISS7 at Week 12 (except US and US reference countries) • Change from baseline in HSS7 at Week 12

[1] = 400 mg BID, Week 11, ITT Population
[2] = 400 mg BID, Week 12, ITT population
[3] = 400 mg BID, Week 12, Omalizumab-Naïve Population
[4] = 400 mg QPM, Omalizumab-Naïve Population, last block under Week 12, double-blind period, WOCF imputation
[5] = 400 mg QPM, Week 1, ITT Population
[6] = 400 mg QPM, Week 1, Omalizumab-Naïve Population
[7] = 400 mg QPM, Week 2, ITT Population
[8] = 400 mg QPM, Week 2, Omalizumab-Naïve Population
[9] = 400 mg QPM, Week 3, ITT Population
[10] = 400 mg QPM, Week 3, Omalizumab-Naïve Population
[11] = 400 mg QPM, Week 4, ITT population
[12] = 400 mg QPM, Week 4, Omalizumab-Naïve Population
[13] = 400 mg QPM, Week 5, ITT Population
[14] = 400 mg QPM, Week 5, Omalizumab-Naïve Population
[15] = 400 mg QPM, Week 6, ITT Population
[16] = 400 mg QPM, Week 6, Omalizumab-Naïve Population
[17] = 400 mg QPM, Week 7, ITT Population
[18] = 400 mg QPM, Week 7, Omalizumab-Naïve Population
[19] = 400 mg QPM, Week 8, ITT population
[20] = 400 mg QPM, Week 8, Omalizumab-Naïve Population
[21] = 400 mg QPM, Week 9, ITT Population

**Q.** Which results are given for `CC(C)(C=C(C#N)C(=O)N1CCC[C@@H](n2nc(-c3ccc(Oc4ccccc4)cc3F)c3c(N)ncnc32)C1)N1CCN(C2COC2)CC1` [rilzabrutinib, (R)-2-[3-[4-amino-3-(2-fluoro-4-phenoxy-phenyl)pyrazolo[3,4-d]pyrimidin-1-yl]piperidine-1-carbonyl]-4-methyl-4-[4-(oxetan-3-yl)piperazin-1-yl]pent-2-enenitrile]?
**A.** HSS7 % Change from baseline LS Mean (SE) [1]: −49.14 (7.06) %; HSS7 Change difference for rilzabrutinib vs.placebo LS Mean (95% CI) [1]: −2.46 (−5.05, 0.13); HSS7 Change from baseline LS Mean (SE) [1]: −7.01 (0.99); HSS7 Postbaseline Mean (SD) [1]: 6.79 (7.06); HSS7 Postbaseline Mean (SD) (400 mg BID, Week 11, Omalizumab-Naïve Population): 7.13 (7.07); HSS7 Postbaseline Mean (SD) (400 mg BID, Week 11, Omalizumab-Naïve Population with Outlier Removed from Analysis): 7.13 (7.07); HSS7 % Change difference for rilzabrutinib vs.placebo LS Mean (95% CI) [2]: −19.13 %; HSS7 % Change from baseline LS Mean (SE) [2]: −46.86 (7.34) %; HSS7 Change difference for rilzabrutinib vs.placebo LS Mean (95% CI) [2]: −1.89 (−4.58, 0.80); HSS7 Change from baseline LS Mean (SE) [2]: −6.78 (1.02); HSS7 Postbaseline Mean (SD) [2]: 7.08 (7.32); HSS7 Change difference for rilzabrutinib vs.placebo LS Mean (95% CI) [3]: −2.12 (−4.97, 0.73); HSS7 Change from baseline LS Mean (SE) [3]: −6.52 (1.07); HSS7 Postbaseline Mean (SD) [3]: 7.52 (7.21); HSS7 Postbaseline Mean (SD) (400 mg BID, Week 12, Omalizumab-Naïve Population with Outlier Removed from Analysis): 7.52 (7.21); HSS7, Max [4]: 21.0; HSS7, Min [4]: 0.0; HSS7 Change from baseline, Max [4]: 1.5; HSS7 Change from baseline, Mean (SD) [4]: −9.87 (8.34); HSS7 Change from baseline, Median [4]: −12.00; HSS7 Change from baseline, Min [4]: −19.6; HSS7 Change from baseline, Q1 [4]: −18.00; HSS7 Change from baseline, Q3 [4]: 0.00; HSS7 Percent change from baseline, Max [4]: 9.4%; HSS7 Percent change from baseline, Mean (SD) [4]: −64.85 (48.75) percent; HSS7 Percent change from baseline, Median [4]: −93.33%; HSS7 Percent change from baseline, Q1 [4]: −100.00%; HSS7 Percent change from baseline, Q3 [4]: 0.00%; HSS7 % Change difference for rilzabrutinib vs.placebo LS Mean (95% CI) [5]: −16.53 %; HSS7 % Change from baseline LS Mean (SE) [5]: −25.22 (5.61) %; HSS7 Change difference for rilzabrutinib vs.placebo LS Mean (95% CI) [5]: −2.14 (−4.59, 0.31); HSS7 Change from baseline LS Mean (SE) [5]: −3.98 (0.76); HSS7 Postbaseline Mean (SD) [5]: 10.76 (4.83); HSS7 % Change difference for rilzabrutinib vs.placebo LS Mean (95% CI) [6]: −17.05 %; HSS7 % Change from baseline LS Mean (SE) [6]: −24.49 (5.76) %; HSS7 Change difference for rilzabrutinib vs.placebo LS Mean (95% CI) [6]: −2.16 (−4.69, 0.37); HSS7 Change from baseline LS Mean (SE) [6]: −3.79 (0.77); HSS7 Postbaseline Mean (SD) [6]: 10.73 (4.90); HSS7 Postbaseline Mean (SD) (400 mg QPM, Week 1, Omalizumab-Naïve Population with Outlier Removed from Analysis): 10.73 (4.90); HSS7 % Change difference for rilzabrutinib vs.placebo LS Mean (95% CI) [7]: −7.67 (−23.03, 7.68) %; HSS7 % Change from baseline LS Mean (SE) [7]: −24.23 (5.75) %; HSS7 Change difference for rilzabrutinib vs.placebo LS Mean (95% CI) [7]: −0.95 (−3.07, 1.17); HSS7 Change from baseline LS Mean (SE) [7]: −3.87 (0.80); HSS7 Postbaseline Mean (SD) [7]: 10.96 (4.91); HSS7 % Change difference for rilzabrutinib vs.placebo LS Mean (95% CI) [8]: −8.35 (−24.24, 7.54) %; HSS7 % Change from baseline LS Mean (SE) [8]: −23.62 (5.84) %; HSS7 Postbaseline Mean (SD) [8]: 10.90 (4.97); HSS7 Postbaseline Mean (SD) (400 mg QPM, Week 2, Omalizumab-Naïve Population with Outlier Removed from Analysis): 10.90 (4.97); HSS7 % Change difference for rilzabrutinib vs.placebo LS Mean (95% CI) [9]: −9.55 (−25.43, 6.33) %; HSS7 % Change from baseline LS Mean (SE) [9]: −28.70 (5.96) %; HSS7 Change difference for rilzabrutinib vs.placebo LS Mean (95% CI) [9]: −0.94 (−3.15, 1.28); HSS7 Change from baseline LS Mean (SE) [9]: −4.44 (0.83); HSS7 Postbaseline Mean (SD) [9]: 10.40 (4.90); HSS7 % Change difference for rilzabrutinib vs.placebo LS Mean (95% CI) [10]: −10.40 %; HSS7 % Change from baseline LS Mean (SE) [10]: −28.10 (6.12) %; HSS7 Postbaseline Mean (SD) [10]: 10.41 (4.97); HSS7 Postbaseline Mean (SD) (400 mg QPM, Week 3, Omalizumab-Naïve Population with Outlier Removed from Analysis): 10.41 (4.97); HSS7 % Change difference for rilzabrutinib vs.placebo LS Mean (95% CI) [11]: −7.88 (−24.05, 8.29) %; HSS7 % Change from baseline LS Mean (SE) [11]: −26.58 (6.02) %; HSS7 Change difference for rilzabrutinib vs.placebo LS Mean (95% CI) [11]: −0.78 (−3.03, 1.46); HSS7 Change from baseline LS Mean (SE) [11]: −4.23 (0.84); HSS7 % Change difference for rilzabrutinib vs.placebo LS Mean (95% CI) [12]: −10.20 %; HSS7 % Change from baseline LS Mean (SE) [12]: −26.07 (6.19) %; HSS7 % Change difference for rilzabrutinib vs.placebo LS Mean (95% CI) [13]: −2.80 %; HSS7 % Change from baseline LS Mean (SE) [13]: −31.95 (5.91) %; HSS7 Change difference for rilzabrutinib vs.placebo LS Mean (95% CI) [13]: −0.33 (−2.64, 1.97); HSS7 Change from baseline LS Mean (SE) [13]: −4.97 (0.86); HSS7 Postbaseline Mean (SD) [13]: 9.59 (5.07); HSS7 % Change difference for rilzabrutinib vs.placebo LS Mean (95% CI) [14]: −0.56 %; HSS7 % Change from baseline LS Mean (SE) [14]: −31.12 (6.01) %; HSS7 Postbaseline Mean (SD) [14]: 9.63 (5.13); HSS7 Postbaseline Mean (SD) (400 mg QPM, Week 5, Omalizumab-Naïve Population with Outlier Removed from Analysis): 9.63 (5.13); HSS7 % Change difference for rilzabrutinib vs.placebo LS Mean (95% CI) [15]: −7.12 %; HSS7 % Change from baseline LS Mean (SE) [15]: −31.19 (6.73) %; HSS7 Change difference for rilzabrutinib vs.placebo LS Mean (95% CI) [15]: −0.50 (−3.00, 2.00); HSS7 Change from baseline LS Mean (SE) [15]: −4.76 (0.93); HSS7 Postbaseline Mean (SD) [15]: 9.89 (5.69); HSS7 % Change difference for rilzabrutinib vs.placebo LS Mean (95% CI) [16]: −6.27 %; HSS7 % Change from baseline LS Mean (SE) [16]: −30.30 (6.90) %; HSS7 Postbaseline Mean (SD) [16]: 9.94 (5.76); HSS7 Postbaseline Mean (SD) (400 mg QPM, Week 6, Omalizumab-Naïve Population with Outlier Removed from Analysis): 9.94 (5.76); HSS7 % Change difference for rilzabrutinib vs.placebo LS Mean (95% CI) [17]: −5.92 %; HSS7 % Change from baseline LS Mean (SE) [17]: −29.88 (6.15) %; HSS7 Change difference for rilzabrutinib vs.placebo LS Mean (95% CI) [17]: −0.53 (−2.87, 1.81); HSS7 Change from baseline LS Mean (SE) [17]: −4.61 (0.88); HSS7 Postbaseline Mean (SD) [17]: 10.38 (5.19); HSS7 % Change difference for rilzabrutinib vs.placebo LS Mean (95% CI) [18]: −3.82 %; HSS7 % Change from baseline LS Mean (SE) [18]: −29.51 (6.35) %; HSS7 Postbaseline Mean (SD) [18]: 10.43 (5.27); HSS7 Postbaseline Mean (SD) (400 mg QPM, Week 7, Omalizumab-Naïve Population with Outlier Removed from Analysis): 10.43 (5.27); HSS7 % Change difference for rilzabrutinib vs.placebo LS Mean (95% CI) [19]: −1.88 %; HSS7 % Change from baseline LS Mean (SE) [19]: −30.95 (6.43) %; HSS7 Change difference for rilzabrutinib vs.placebo LS Mean (95% CI) [19]: 0.11 (−2.37, 2.59); HSS7 Change from baseline LS Mean (SE) [19]: −4.64 (0.93); HSS7 Postbaseline Mean (SD) [19]: 10.43 (5.63); HSS7 % Change difference for rilzabrutinib vs.placebo LS Mean (95% CI) [20]: −2.41 %; HSS7 % Change from baseline LS Mean (SE) [20]: −30.42 (6.75) %; HSS7 % Change difference for rilzabrutinib vs.placebo LS Mean (95% CI) [21]: −10.31 %; HSS7 % Change from baseline LS Mean (SE) [21]: −34.23 (6.69) %; HSS7 Change difference for rilzabrutinib vs.placebo LS Mean (95% CI) [21]: −0.94 (−3.47, 1.59); HSS7 Change from baseline LS Mean (SE) [21]: −5.06 (0.95); HSS7 Postbaseline Mean (SD) [21]: 9.77 (5.51); HSS7 Postbaseline Mean (SD) (400 mg QPM, Week 9, Omalizumab-Naïve Population): 9.82 (5.59); HSS7 Postbaseline Mean (SD) (400 mg QPM, Week 9, Omalizumab-Naïve Population with Outlier Removed from Analysis): 9.82 (5.59)

Reference: patent publication US20260256792A1, “TREATMENT OF CHRONIC SPONTANEOUS URTICARIA BY ADMINISTERING (R)-2-[3-[4-AMINO-3-(2-FLUORO-4-PHENOXY-PHENYL)PYRAZOLO[3,4-D]PYRIMIDIN-1-YL]PIPERIDINE-1-CARBONYL]-4-METHYL-4-[4-(OXETAN-3-YL)PIPERAZIN-1-YL]PENT-2-ENENITRILE” (priority 2023, published 2026)
